From patent publication US20130040991A1, “PHARMACEUTICAL COMPOSITION COMPRISING GEMFIBROZIL AND CYP2C8 AND/OR OATP SUBSTRATE DRUG SUCH AS REPAGLINIDE” (priority 2010, published 2013)

Assays:
CYP2C8 [1] = molecular target: T1, CYP2C8 (Homo sapiens, UniProt P10632); set-up: Estimation of CYP2C8 Half-Life Using Repaglinide as an in Vivo Probe; host or cells: in vivo (subjects of the cited studies); conditions: cited from earlier work
T1 sequence (P10632 1-490): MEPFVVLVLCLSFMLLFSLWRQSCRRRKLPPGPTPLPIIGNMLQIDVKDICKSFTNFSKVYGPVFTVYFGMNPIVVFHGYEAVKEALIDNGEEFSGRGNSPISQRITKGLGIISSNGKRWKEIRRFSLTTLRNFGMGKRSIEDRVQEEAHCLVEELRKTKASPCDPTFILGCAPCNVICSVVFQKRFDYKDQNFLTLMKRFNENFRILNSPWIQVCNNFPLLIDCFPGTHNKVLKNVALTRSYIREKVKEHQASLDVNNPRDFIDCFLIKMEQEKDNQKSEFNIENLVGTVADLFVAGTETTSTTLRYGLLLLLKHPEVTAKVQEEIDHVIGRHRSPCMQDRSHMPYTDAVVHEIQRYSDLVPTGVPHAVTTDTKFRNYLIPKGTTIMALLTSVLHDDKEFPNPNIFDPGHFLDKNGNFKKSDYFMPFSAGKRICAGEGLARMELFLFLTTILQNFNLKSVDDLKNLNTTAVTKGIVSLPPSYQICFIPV

CYP2C8 [2] = molecular target: T1, CYP2C8; assay: Effect of single oral gemfibrozil doses on repaglinide AUC, fitted to a mechanistic model of CYP2C8 inhibition; assay type: in vivo; set-up: The subjects ingested in a cross-over study a small dose (0.25 mg) of repaglinide with different doses of gemfibrozil; from tissue; host or cells: living human subjects (in vivo)
Procedure: The effect of various oral single doses (30 mg, 100 mg, 300 mg and 900 mg) of gemfibrozil on the total plasma exposure, i.e., area under the plasma concentration-time curve (AUC), of a CYP2C8 and OATP1B1 substrate drug (repaglinide) was measured. The mean fold increase in the AUC (AUCi/AUCc) of repaglinide with the different gemfibrozil doses in six human subjects is given in relation to the mean average plasma concentration of gemfibrozil 1-O-β-glucuronide during 10 hours after gemfirozil dosing (Cavg). The subjects ingested in a cross-over study a small dose (0.25 mg) of repaglinide with different doses of gemfibrozil. Venous blood samples were taken at fixed time points up to 10 hours after gemfibrozil dosing, and plasma repaglinide, gemfibrozil and gemfibrozil 1-O-β-glucuronide concentrations were determined using a validated liquid chromatographic-tandem mass spectrometric (LC/MSMS) method. The data were fitted to the following mechanistic model (equation):

CYP2C8 [3] = molecular target: T1, CYP2C8; set-up: Estimation of CYP2C8 Half-Life Using Repaglinide as an in Vivo Probe; host or cells: in vivo (subjects of the cited studies); conditions: gemfibrozil 600 mg twice daily; Tornio et al 2008; cited from earlier work
[4] = Effects of different gemfibrozil doses on plasma profiles of repaglinide, repaglinide dose adjusted to equal AUC; assay type: in vivo, human; conditions: when the ratio of gemfibrozil (0-900 mg) to repaglinide is increased; repaglinide dose adjusted to same AUC
Procedure: The effects of different doses of gemfibrozil (0 mg, 30 mg, 100 mg, 300 mg and 900 mg) on plasma profiles of repaglinide were measured. The doses of repaglinide were adjusted so that the total exposure to repaglinide (defined as the area under plasma repaglinide concentration-time curve, AUC) is the same in all 5 cases, corresponding to the AUC after a single dose of 0.25 mg repaglinide without gemfibrozil.

SMILES | inhibitor of CYP2C8 (qualitative) (CYP2C8 [1]) | effect of small gemfibrozil doses in repeated dosing (CYP2C8 [2]; repeated dosing, gemfibrozil doses <30 mg, due to irreversible inhibition of CYP2C8) | inhibition of the CYP2C8 enzyme (CYP2C8 [2]; single oral dose of 100 mg gemfibrozil, model-based from fold increase in repaglinide (0.25 mg) AUC, six human subjects) [%] | persistence of the risk of gemfibrozil-related interactions (effect on repaglinide pharmacokinetics) after the dose (CYP2C8 [3]) | elimination half-life (and effect) of repaglinide [4] | estimated peak concentration of repaglinide [4]
Cc1ccc(C)c(OCCCC(C)(C)C(=O)O[C@@H]2O[C@H](C(=O)O)[C@@H](O)[C@H](O)[C@H]2O)c1 [gemfibrozil 1-O-β-glucuronide] | potent inhibitor and inactivator |  |  |  |  | 
Cc1ccc(C)c(OCCCC(C)(C)C(=O)O)c1 [gemfibrozil, 5-(2,5-dimethylphenoxy)-2,2-dimethyl-pentanoic acid] | relatively weak inhibitor | increased | 90 | at Least 12 hours |  | 
CCOc1cc(CC(=O)N[C@@H](CC(C)C)c2ccccc2N2CCCCC2)ccc1C(=O)O [repaglinide] |  |  |  |  | prolonged | reduced
